US20220175717A1, “PHENPROCOUMON TTS” (LTS LOHMANN THERAPIE-SYSTEME AG, priority 2019, published 2022)

Columns and labels:
[1] = Saturation concentration Cs of phenprocoumon in polymer matrices (sandwich method of Liu); assay type: physicochemical; conditions: for Cs of phenprocoumon: 7 days at room temperature
Method: The saturation concentration Cs of phenprocoumon was determined in various polymer matrices according to the method of Liu (Liu, P., Gargiulo, P., Wong, J., and Novartis (1997). A Novel Method for Measuring Solubility of a Drug in an Adhesive. Pharmaceutical Research 14, p. 317). In this method, known among experts as the “sandwich” method, the saturation concentration is determined as follows: A laminate is built up with the following sequence of layers: protective film—donor layer with active substance (dissolved and undissolved)—active-substance-permeable membrane—acceptor layer without active substance—protective film. The two protective films consist of identical material; the matrix material of the donor layer and acceptor layer is also identical. The donor layer is prepared by dissolving the active substance in a solution of the polymer in organic solvent. In this process, the concentration of the active substance must be chosen to be high enough that an undissolved residue is visible in the polymer matrix, so that the saturation concentration Cs in the donor layer is safely exceeded. This solution is spread on the protective film and the process solvent is evaporated. Then, the adhesive surface of the donor layer is covered with the membrane. The membrane used is a dialysis tube made of regenerated cellulose (ZelluTrans, from Roth, 46 mm flat width), which has been cut open lengthwise. The acceptor layer is produced analogously to the donor layer without active substance and is applied to the other side of the membrane. The laminates produced in this way are then stored at room temperature for 7 days, during which diffusion of the active substance through the membrane into the acceptor layer occurs. Subsequently, the active substance concentration in the donor layer is determined. For this purpose, aliquots of approx. 1 cm^2 are punched using a punching tool with a standardised surface area. The membrane is then removed, the punched pieces without membrane are weighed, and their weight is documented (m1). Then, the punched pieces are placed in organic solvent to dissolve the matrices. The backing layers are removed, washed and dried and their weight (m2) is determined. From both measured values, the weight of the polymer portion of the […] m3 is obtained as follows: m3=m1−m2 Subsequently, the concentration of phenprocoumon is determined in the solution using HPLC, and its concentration in the donor layer is calculated. The saturation concentrations of phenprocoumon in different polymer matrices determined according to this experimental approach are summarised in Table 1: […]

[2] = Solubility of phenprocoumon in process solvents; assay type: physicochemical
Method: Since toluene polysiloxane solution is not commercially available, BIO PSA 4201 from Dow Chemicals (polysiloxane in n-heptane) was used as starting material. The solvent was evaporated off and the rubbery polymeric residue was dissolved with enough toluene to obtain a solution with approx. 75% solids.

[3] = once absorbed by the body; cited from earlier work

In the case of `CCC(c1ccccc1)c1c(O)c2ccccc2oc1=O` (stereo not drawn) [phenprocoumon, Phenprocoumon], the Cs of phenprocoumon ([1]; in acrylate copolymer of 2-ethylhexyl acrylate, vinyl acetate and 2-hydroxyl ethyl acrylate, ethyl acetate) is reported as 6.11%, the Cs of phenprocoumon ([1]; in acrylic copolymer of 2-ethylhexyl acrylate, butyl acrylate, vinyl acetate, acrylic acid, ethyl acetate) is reported as 7.26% and the “saturation concentration Cs of phenprocoumon” value ([1]; in neutral polymers (text summary of Table 1)) is reported as over 5%. For the same molecule, the Cs of phenprocoumon ([1]; in polyisobutylene, polymer dissolved in toluene) was 2.8%, the Cs of phenprocoumon ([1]; in polysiloxane, ethyl acetate) was 0.3% and the Cs of phenprocoumon ([1]; in styrene-isoprene-styrene block copolymer, polymer dissolved in toluene) was 3.9%. For the same molecule, the solubility ([2]; in aromatic hydrocarbons) was “sufficiently soluble”, the solubility ([2]; in n-heptane) was “not in n-heptane” and the biological half-life [3] was “up to 160 hours”.
